“Also recorded” adds a separate entry of the source.

Test [1] concerns RAW264.7 cells. Description: Nitric oxide (NO) production, Griess reaction. Conditions: 24 hours. Type of test: cell-based, mouse. How it is done:
The mouse macrophage cell line RAW 264.7 (ATCC, Bethesda, Md.) was cultured in Dulbecco's modified Eagle's medium (DMEM) (Biological Industries) supplemented with 10% heat-inactivated fetal bovine serum (Biological Industries, Israel), 100 μg/ml streptomycin, 100 U/ml penicillin (Sigma) and 2 mM 1-glutamine (Biological Industries) at 37° C. in a humidified atmosphere with 5% CO2.
Determination of nitric oxide (NO) production: Nitrite concentration in the medium of cultured cells was measured as an indicator of NO production according to the Griess reaction. 1×10^5 mouse RAW264.7 cells were grown in 0.5 ml medium in 48-wells plate until 80% confluence was obtained. […] (1% sulfanilamide, 0.1% naphthylethylenediamine dihydrochloride, 5% H3PO4). Absorbance was read at 540 nm after 10 min using SPECTRAFluor Plus spectrophotometer (TECAN, UK).
To further characterize the TLR9 activating features of mEN101, mEN101 was applied to RAW264.7 cells (n=4 repeats) for 24 hours and the subsequent production of inflammatory markers was quantified. […] Addition of chloroquine (CQ), a weak base that perturbs endosomal pH and thus disturbs endosomal maturation, as well as the specific TLR9 inhibiting oligonucleotides ODN2088 and ODN TTAGGG (17), all blocked the 10 μM mEN101-driven increases in NO (p<0.015) (FIG. 2A). Thus, both gain and loss of function tests validated the nature of mEN101 as an endosomally active TLR9 activator, albeit a weak one.

Test [2] has as its system FVB/N mice. Description: Predator (cat) odor stress paradigm, elevated plus maze (EPM) and acoustic startle response (ASR) one week post-exposure. The format is in vivo, mouse.
The subject of test [3] is FVB/N mice. The test is described as above. The format is in vivo, mouse. How it is done: Animals: FVB/N or adult TLR9 −/− mice and strain-matched wild type C57/B6J mice were housed four per cage, with constant temperature (21±1° C.), a 12 hour light/dark cycle, free access to food and water and habituation to the housing conditions by daily handling. Experiments were performed 1 week after arrival in the animal facility.
Behavioral paradigms: Mice were placed for 10 minutes on well-soiled cat litter (in use by the cat for 2 days, sifted for stools). One week after exposure, animals were tested according to Cohen et al. (2005) Biol Psychiatry 58, 640 in the elevated plus maze (EPM) and the acoustic startle response (ASR) paradigms. The EPM is a plus-shaped platform with two opposing open arms and two opposing closed arms (surrounded by 14-cm high opaque walls on three sides). Mice were placed on the central platform and were allowed to explore the maze for 5 min. […]
Startle response was measured using two ventilated startle chambers (SR-LAB System, San Diego Instruments, San Diego, Calif.). Each Plexiglas cylinder rests on a platform inside a sound-attenuated, ventilated chamber. Startle sessions started with a 5-minute acclimatization period to a background of 68 dB white noise, followed by 30 acoustic startle stimuli (110 dB white noise of 40 ms duration with 30 s or 45 s inter-trial interval). Startle amplitude was averaged over all 30 trials, and percent habituation was calculated as the percent difference between the response to the first block of stimuli and to the last one.
Animals were randomly divided into 5 groups. The following daily treatments initiated immediately before stressor exposure and for a total of four consecutive days: saline, 50 μg/kg ODN1826, 50 μg/kg mEN101, 50 μg/kg μg mEN101 and 500 μg/kg μg ODN2088. Oligonucleotides were delivered in 300 μl 0.9% NaCl solution (Teva, Israel). A control group was exposed to fresh, unused litter. Animals were sacrificed and brains dissected on day 1 2 h after the stressor, on day 4 2 h after the last injection, or on day 7 2 h after the behavioral tests, as noted.
To challenge the hypothesis that TLR9 activation modulates psychological stress reactions, mice were exposed to the predator odor stress paradigm (Cohen, H., Zohar, J., Matar, M. A., Kaplan, Z. & Geva, A. B. (2005) Biol Psychiatry 58, 640-50) and treated them with TLR9 activating or blocking oligonucleotides and with a known stress-suppressing oligonucleotide, mEN101. One week post-exposure, treated mice were tested for avoidance behavior and hyper-arousal in the elevated plus maze (EPM) and acoustic startle response (ASR) tests, respectively (FIG. 1B). […] They also presented greater startle amplitude (F5,103=10.75, p<0.0001; p<0.0001) and decreased startle habituation ([…]; p<0.0001) than control mice (FIG. 1C). The traumatic experience conferred varied impacts in the exposed mice, ranging from drastically maladaptive behavior to generally unmodified response patterns.
The source holds these as a separate data set.

The test system of test [4] is RAW264.7 cells. Description: LPS-induced NO production with or without corticosterone after ODN1826 pre-incubation. The format is cell-based, mouse. Conditions: 24 hours before LPS 1 μg/ml with corticosterone. How it is done: Determination of nitric oxygen (NO) production: The nitrite concentration in the medium was measured as an indicator of NO production according to the Griess reaction. 1×10^5 RAW264.7 cells were grown in 0.5 ml medium in 48-wells plate until 80% confluence was obtained. […] (1% sulfanilamide, 0.1% naphthylethylenediamine dihydrochloride, 5% H3PO4). Absorbance was read at 540 nm after 10 minutes using SPECTRAFluor Plus spectrophotometer (TECAN, UK).
In order to study the functional effects of TLR9 activation on GR signaling, RAW264.7 cells were incubated with varying concentrations of ODN1826 (SEQ ID NO: 2) for 24 hours and the medium was replaced with one containing LPS (1 μg/ml) with or without […] corticosterone (CORT) for an additional 24 hours. As expected, CORT blocked lipopolysaccharide (LPS)-induced NO production.

On to “5′-TCCATGACGTTCCTGACGTT-3′ [ODN1826, reference compound]”, for which, in the test with RAW264.7 cells [1], the “concentration reaching saturation levels of NO production” value is on record as 100 nM. For the same substance, the “lowest concentration inducing massive NO production” value in the test with RAW264.7 cells [1] is given as 10 nM. The “stress-induced anxiety scores (EPM score, startle response, habituation to startle)” value is “diminished stress-induced anxiety scores; also recorded: lower EPM scores” in the test with FVB/N mice [2] (0.5 μg/kg i.p. daily for 4 days, tested day 7, compared to stressed mice) and “increased stress-induced anxiety scores; also recorded: slightly anxiogenic behavior” in the test on FVB/N mice [3] (50 μg/kg i.p. daily for 4 consecutive days, tested day 7, compared to saline-treated stressed mice). Also, the “anxiety index (AI)” value is “decreased it” with FVB/N mice [2] (low dose (0.5 μg/kg), compared to saline injected stressed mice) and “significantly increased AI” in the test on FVB/N mice [3] (50 μg/kg (high dose for ODN1826), compared to saline injected stressed mice). Besides, in the test on RAW264.7 cells [4] (higher doses (10-100 nM)), the “effect on LPS-induced NO production / cell activation” value is given as “increased cell activation”. Besides, the “effect on CORT inhibition of LPS-induced NO production” value in the test on RAW264.7 cells [4] (low doses (0.01-1 nM)) is “potentiated CORT anti-inflammatory effect”.

The values above are taken from patent US20110136897A1, “TOLL-LIKE RECEPTOR 9 AGONISTS FOR THE TREATMENT OF ANXIETY-RELATED DISORDERS AND INFLAMMATORY DISORDERS” (YISSUM RESEARCH DEVELOPMENT COMPANY OF THE HEBREW …, priority 2008, published 2011).
